ChEMBL document CHEMBL1201862, “PubChem BioAssay data set” (2004)
Several values for one entry are separate records, joined by “and”; a condition that tells them apart may be missing. Equal entries are not always repeated.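 Tested at 5 concentrations; 48 h exposure; 96-well plates; endpoints linearly interpolated, else capped at highest concentration. The concentration for 50% growth inhibition is given as GI50.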 Activity calls are given as the source filed them. No stated cut-off is given here; in the data, active = GI50 up to about 1.1 µM and inactive = higher.

Key:
Experiment in all cases: NCI-60 cell line screen, 48 h
[1] = tested on: HL-60
[2] = tested on: RPMI-8226
[3] = tested on: KM12
[4] = tested on: HCT-15
[5] = tested on: EKVX
[6] = tested on: SN12C
[7] = tested on: MDA-N
[8] = tested on: MCF7
[9] = tested on: SK-MEL-28
[10] = tested on: SK-MEL-5
[11] = tested on: TK-10
[12] = tested on: HOP-62
[13] = tested on: HCC 2998
[14] = tested on: COLO 205
[15] = tested on: SR
[16] = tested on: A549
[17] = tested on: SNB-75
[18] = tested on: DU-145
[19] = tested on: IGROV-1
[20] = tested on: PC-3
[21] = tested on: HT-29
[22] = tested on: K562
[23] = tested on: NCI-H23
[24] = tested on: 786-0
[25] = tested on: RXF 393
[26] = tested on: CCRF-CEM
[27] = tested on: SW-620
[28] = tested on: OVCAR-8
[29] = tested on: MOLT-4
[30] = tested on: M14
[31] = tested on: SK-OV-3
[32] = tested on: MDA-MB-231
[33] = tested on: SF-268
[34] = tested on: UACC-257
[35] = tested on: SF-295
[36] = tested on: CAKI-1
[37] = tested on: T47D
[38] = tested on: UACC-62
[39] = tested on: Malme-3M
[40] = tested on: SF-539
[41] = tested on: LOX IMVI
[42] = tested on: OVCAR-5
[43] = tested on: OVCAR-3
[44] = tested on: HCT-116
[45] = tested on: NCI/ADR-RES
[46] = tested on: HOP-92
[47] = tested on: MDA-MB-435
[48] = tested on: NCI-H226
[49] = tested on: UO-31
[50] = tested on: SNB-19
[51] = tested on: ACHN
[52] = tested on: NCI-H460
[53] = tested on: A498
[54] = tested on: U-251
[55] = tested on: OVCAR-4
[56] = tested on: SK-MEL-2

Compound: CC(C)(C)[Si](C)(C)Oc1cc(CO)cc2c1cc(=N)o[n+]2[O-]
- GI50 [1]: 3.61 µM (inactive)
- GI50 [2]: 6.22 µM (inactive)
- GI50 [3]: 4.1 µM (inactive)
- GI50 [4]: 5.61 µM
- GI50 [5]: > 10 µM (inactive)
- GI50 [6]: 5.56 µM (inactive)
- GI50 [7]: > 10 µM (inactive)
- GI50 [8]: 2.72 µM (inactive)
- GI50 [9]: > 10 µM (inactive)
- GI50 [10]: > 10 µM (inactive)
- GI50 [11]: > 10 µM (inactive)
- GI50 [12]: > 10 µM (inactive)
- GI50 [13]: 9.35 µM (inactive)
- GI50 [14]: > 10 µM (inactive)
- GI50 [15]: 2.48 µM (inactive)
- GI50 [16]: > 10 µM (inactive)
- GI50 [17]: > 10 µM (inactive)
- GI50 [18]: > 10 µM (inactive)
- GI50 [19]: 8.15 µM (inactive)
- GI50 [20]: 4.01 µM (inactive)
- GI50 [21]: 4.18 µM (inactive)
- GI50 [22]: 4.53 µM (inactive)
- GI50 [23]: 6.97 µM (inactive)
- GI50 [24]: > 10 µM (inactive)
- GI50 [25]: 3.96 µM (inactive)
- GI50 [26]: 2.84 µM (inactive)
- GI50 [27]: > 10 µM (inactive)
- GI50 [28]: > 10 µM (inactive)
- GI50 [29]: 2.61 µM (inactive)
- GI50 [30]: > 10 µM (inactive)
- GI50 [31]: > 10 µM (inactive)
- GI50 [32]: > 10 µM (inactive)
- GI50 [33]: 6.03 µM (inactive)
- GI50 [34]: > 10 µM (inactive)
- GI50 [35]: > 10 µM (inactive)
- GI50 [36]: > 10 µM (inactive)
- GI50 [37]: 4.8 µM (inactive)
- GI50 [38]: > 10 µM (inactive)
- GI50 [39]: > 10 µM (inactive)

Compound: O=C(N/C(=C\NC1=NCCS1)C(=O)N1CSC[C@@H]1C(=O)O)c1ccccc1
- GI50 [1]: > 100 µM (inactive)
- GI50 [2]: > 100 µM (inactive)
- GI50 [3]: > 100 µM (inactive)
- GI50 [4]: > 100 µM
- GI50 [40]: > 100 µM (inactive)
- GI50 [5]: > 100 µM (inactive)
- GI50 [6]: > 100 µM (inactive)
- GI50 [41]: > 100 µM (inactive)
- GI50 [42]: > 100 µM (inactive)
- GI50 [7]: > 100 µM (inactive)
- GI50 [8]: > 100 µM (inactive)
- GI50 [9]: > 100 µM (inactive)
- GI50 [43]: > 100 µM (inactive)
- GI50 [10]: > 100 µM (inactive)
- GI50 [11]: > 100 µM (inactive)
- GI50 [12]: > 100 µM (inactive)
- GI50 [13]: > 100 µM (inactive)
- GI50 [44]: > 100 µM (inactive)
- GI50 [45]: > 100 µM (inactive)
- GI50 [46]: > 100 µM (inactive)
- GI50 [14]: > 100 µM (inactive)
- GI50 [47]: > 100 µM (inactive)
- GI50 [16]: > 100 µM (inactive)
- GI50 [48]: > 100 µM (inactive)
- GI50 [17]: > 100 µM (inactive)
- GI50 [18]: > 100 µM (inactive)
- GI50 [49]: > 100 µM (inactive)
- GI50 [20]: > 100 µM (inactive)
- GI50 [21]: > 100 µM (inactive)
- GI50 [22]: > 100 µM (inactive)
- GI50 [50]: > 100 µM (inactive)
- GI50 [23]: > 100 µM (inactive)
- GI50 [24]: 77.8 µM (inactive)
- GI50 [25]: > 100 µM (inactive)
- GI50 [51]: > 100 µM (inactive)
- GI50 [26]: > 100 µM (inactive)
- GI50 [27]: > 100 µM (inactive)
- GI50 [28]: > 100 µM (inactive)
- GI50 [29]: > 100 µM (inactive)
- GI50 [30]: > 100 µM (inactive)
- GI50 [31]: > 100 µM (inactive)
- GI50 [52]: > 100 µM (inactive)
- GI50 [32]: > 100 µM (inactive)
- GI50 [33]: > 100 µM (inactive)
- GI50 [53]: > 100 µM (inactive)
- GI50 [34]: > 100 µM (inactive)
- GI50 [54]: > 100 µM (inactive)
- GI50 [35]: > 100 µM (inactive)
- GI50 [36]: > 100 µM (inactive)
- GI50 [37]: > 100 µM (inactive)
- GI50 [38]: > 100 µM (inactive)
- GI50 [55]: > 100 µM (inactive)

Compound: CC(=O)OCC1OC(n2c(=S)n(-c3ccc(C)cc3)c(=O)c3ccccc32)C(OC(C)=O)C(OC(C)=O)C1OC(C)=O (configuration not stated)
- GI50 [2]: 86.3 µM (inactive) and 49.1 µM (inactive)
- GI50 [11]: 29 µM (inactive)
- GI50 [46]: 31.6 µM (inactive) and 30.4 µM (inactive)
- GI50 [15]: 23.7 µM (inactive)
- GI50 [49]: 62.4 µM (inactive) and 58.1 µM (inactive)
- GI50 [25]: 83 µM (inactive) and 67 µM (inactive)
- GI50 [29]: 65.3 µM (inactive)

Compound: O=c1c2cc(Br)ccc2ncn1COCc1ccccc1
- GI50 [1]: > 10 µM (inactive)
- GI50 [3]: 52.6 µM (inactive)
- GI50 [4]: 64 µM
- GI50 [40]: > 100 µM (inactive)
- GI50 [5]: 88.3 µM (inactive)
- GI50 [41]: 38.7 µM (inactive)
- GI50 [42]: > 100 µM (inactive)
- GI50 [8]: 37.1 µM (inactive)
- GI50 [9]: > 100 µM (inactive)
- GI50 [43]: > 100 µM (inactive)
- GI50 [10]: 31 µM (inactive)
- GI50 [11]: 96.6 µM (inactive)
- GI50 [13]: > 100 µM (inactive)
- GI50 [44]: 61.8 µM (inactive)
- GI50 [46]: > 100 µM (inactive)
- GI50 [14]: 93.8 µM (inactive)
- GI50 [47]: > 100 µM (inactive)
- GI50 [15]: 56.5 µM (inactive)
- GI50 [16]: 52.1 µM (inactive)
- GI50 [18]: > 100 µM (inactive)
- GI50 [49]: 24.1 µM (inactive)
- GI50 [19]: 56.2 µM (inactive)
- GI50 [56]: > 100 µM (inactive)
- GI50 [22]: 54.6 µM (inactive)
- GI50 [50]: 45.6 µM (inactive)
- GI50 [24]: 70.3 µM (inactive)
- GI50 [25]: 51.5 µM (inactive)
- GI50 [51]: 23.8 µM (inactive)
- GI50 [26]: 71 µM (inactive)
- GI50 [27]: > 100 µM (inactive)
- GI50 [29]: 42.8 µM (inactive)
- GI50 [30]: 97.7 µM (inactive)
- GI50 [31]: > 100 µM (inactive)
- GI50 [53]: > 100 µM (inactive)
- GI50 [34]: > 100 µM (inactive)
- GI50 [54]: > 100 µM (inactive)
- GI50 [35]: > 100 µM (inactive)
- GI50 [38]: 80.5 µM (inactive)
- GI50 [55]: > 100 µM (inactive)
